Results as given in US8445461B2, “Pharmaceutical composition for meniere's disease” (Setsuko Takeda, priority 2007, dated 2013).

What was measured:
[1] = test system: endolymphatic hydrops; settings: systemic administration; cited from earlier work
[2] = test system: guinea pigs excreting normal feces; assay: Antidiarrheal effect: observation of feces after oral administration of saccharides or sugar alcohols with or without polysaccharides (Example 1); assay type: in vivo; settings: maltitol 2.8 g/kg oral, alone or with additive; average of 4 animals; score 0 muddy to 4 hard
[3] = test system: guinea pigs excreting normal feces; assay: as above; assay type: in vivo
Description: The criteria for analyzing the conditions of feces (hardness, shape and spaces of feces in the intestine) are as shown in Table 2:
The hardness and microscopic findings of feces from the group administered with distilled water were assessed as “Normal” scoring 3, the feces having normal shape and the shape could rather easily change by pushing with fingers were assessed as “Slightly soft” scoring 2, those of which the shape had already changed or it could quite easily change by pushed with fingers were assessed as “Soft” scoring 1, and those of which the shape is muddy or watery or of no shape were assessed “Muddy” scoring 0. To be precese, there are no watery feces because of the nature of diets and thus the muddy feces correspond to watery and muddy feces in human.
Since the muddy feces comprise large content of water, they induce the high abdominal pressure and the flatulence and distension. […] In the case of gas generation, it appears that noxious symptom such as the flatulence and distension are synergistically deteriorated. Therefore, we assessed not only based on the hardness of feces, but also the size, smoothness of the surface and amount of feces.
In these experiments, I observed is the diarrhea caused by saccharides or sugar alcohols and antidiarrhreal effect of saccharides. Guinea pigs orally received saccharides or sugar alcohols, for example tetrose such as erythritol, pentose such as xylitol or xylose, hexose such as isosorbitol or the like in combination with or without polysaccharides for observation of the feces up to 6 hours after the administration.
Guinea pigs (body weight 280 to 320 g, normal feces) were divided into four groups: for Group 1-a, xylitol alone (Reference Example 1), or xylitol and xanthan gum or pectin; for Group 1-b, xylose alone (Reference Example 2), xylose and xanthan gum or pectin; for Group 1-c, erythritol alone (Reference Example 3), erythritol and pectin, erythritol and xanthan gum, or erythritol, pectin and natural aluminum silicate gel or calcium carbonate; and for Group 1-d, isosorbitol alone (Reference Example 4), or isosorbitol and xanthan gum or pectin were orally administered, respectively. The compounds are dissolved in distilled water and 8 ml/kg of said solution were administered as a single dose.
The feces were observed during 6 hours after the administration. When the animals fell into the most serious condition, the hardness and shape of the feces from said animals were assessed as the effect by saccharides or sugar alcohols in the animals.

[4] = active agent 2.8 g/kg oral, alone or with additive of the label
[5] = maltitol 2.8 g/kg oral, alone or with additive of the label (Table 6)
[6] = maltitol 2.8 g/kg oral, alone or with additive, average of 4 animals, score 0 muddy to 4 hard

SMILES: Cc1ccccc1C(=O)Nc1ccc(C(=O)N2CCCC(N(C)C)c3ccccc32)cc1 (stereo not shown) [OPC 31260]
- Decompression effect on endolymphatic hydrops [1]: did not reveal the decompression effect
- Effect in the normal ear [1]: formation of endolymphatic hydrops in the normal ear

SMILES: OC[C@@H](O)[C@@H](O[C@H]1O[C@H](CO)[C@@H](O)[C@H](O)[C@H]1O)[C@H](O)[C@@H](O)CO [Maltitol, maltitol]
- Hardness of feces (average score), 12 hr after the administration [2]: 0
- Hardness of feces (average score), 18 hr after the administration [2]: 1.2
- Hardness of feces (average score), 24 hr after the administration [2]: 2.5
- Abdominal distension / gas by inspections and palpations [3, 4]: abdominal distension was observed
- Time after administration when diarrhea / softening of feces started [3, 4]: 3 h
- Time after administration when feces recovered to (almost) normal [3, 4]: ≥ 24 h
- Hardness of feces: Hard (number of animals) [3, 5]: 0
- Hardness of feces: Muddy (number of animals) [3, 5]: 6
- Hardness of feces: Normal (number of animals) [3, 5]: 0
- Hardness of feces: Slightly soft (number of animals) [3, 5]: 0
- Hardness of feces: Soft (number of animals) [3, 5]: 0
- Hardness of feces (average score), 1 hr after the administration [3, 6]: 3
- Hardness of feces (average score), 2 hr after the administration [3, 6]: 2.3
- Hardness of feces (average score), 3 hr after the administration [3, 6]: 1.7
- Hardness of feces (average score), 4 hr after the administration [3, 6]: 0.2
- Hardness of feces (average score), 5 hr after the administration [3, 6]: 0
- Hardness of feces (average score), 6 hr after the administration [3, 6]: 0
